This test addresses Ps CPG2 (Pseudomonas sp. RS-16, UniProt P06621). The test is described as follows: decrease in absorbance at […] nm, plate reader, initial rates. The format is biochemical. Particulars: 0.1 M Tris-HCl pH 7.3, 0.2 mM ZnSO4, 37°C, 0.03-0.42 mM MTX; apparent Km.

SMILES strings stand for the structures.

Chain of Ps CPG2 (P06621 23-415): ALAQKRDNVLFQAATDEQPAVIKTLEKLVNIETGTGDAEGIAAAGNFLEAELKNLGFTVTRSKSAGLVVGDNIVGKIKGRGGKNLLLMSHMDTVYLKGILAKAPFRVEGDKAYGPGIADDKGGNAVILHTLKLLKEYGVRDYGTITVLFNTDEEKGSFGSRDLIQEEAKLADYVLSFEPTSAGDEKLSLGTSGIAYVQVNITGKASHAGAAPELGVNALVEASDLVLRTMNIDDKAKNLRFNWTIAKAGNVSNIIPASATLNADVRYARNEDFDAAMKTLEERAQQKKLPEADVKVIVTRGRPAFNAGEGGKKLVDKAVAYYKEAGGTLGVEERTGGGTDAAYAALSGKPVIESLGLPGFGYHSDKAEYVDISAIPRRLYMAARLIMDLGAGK

Usually Km stands for the substrate concentration at which the rate is half of its maximum. Regarding `CN(Cc1cnc2nc(N)nc(N)c2n1)c1ccc(C(=O)N[C@@H](CCC(=O)O)C(=O)O)cc1` [methotrexate], the Km is 172 µM.

These data come from article PMC5919439, “Isolation and molecular characterization of novel glucarpidases: Enzymes to improve the antibody directed enzyme pro-drug therapy for cancer treatment” (PLoS ONE, 2018).
